Data: PMC10545747, “Development of cyclopeptide inhibitors of cGAS targeting protein-DNA interaction and phase separation” (Nature Communications, 2023)
“And” between values parts separate entries of the source, which are not always exact repeats. Identical values can stand only once. “Also recorded” adds a separate entry of the source. Square brackets hold non-standard residues; d marks the D form. Peptide text beside a SMILES is read from it.

Key:
[1] = tested on: THP1-Lucia ISG cells infected by HSV-1; test: Luciferase reporter assay, HSV-1 infection; type: cell-based, human; conditions: for luciferase activity, Fig. 5c: XQ2 10 μM
Method: THP1-Lucia ISG cells (Invivogen) were seeded into a 96-well plate and incubated with RU.521 (Invivogen) or XQ2 for the indicated time, and then transfected with dsDNA by lipofectamine 2000 (Invitrogen) or infected by HSV-1 with the indicated titer for 24 h. The supernatant was collected and 50 μL QUANTI-Luc Luciferase reagent (Invivogen) was added to 20 μL supernatants per well, and luciferase luminescence was detected by a microplate reader (BioTek Synergy H1) immediately.

[2] = molecular target: T1, hcGAS-FL (D191R) mutant (Homo sapiens, UniProt Q8N884, D191R); test: Surface plasmon resonance (SPR); type: binding
T1 construct: The gene encoding full-length human cGAS (hcGAS-FL); 6xHis-SUMO (N, cleaved yes); made in house; host or cells: Escherichia coli BL21 (DE3)
T1 sequence (Q8N884 whole entry D191R): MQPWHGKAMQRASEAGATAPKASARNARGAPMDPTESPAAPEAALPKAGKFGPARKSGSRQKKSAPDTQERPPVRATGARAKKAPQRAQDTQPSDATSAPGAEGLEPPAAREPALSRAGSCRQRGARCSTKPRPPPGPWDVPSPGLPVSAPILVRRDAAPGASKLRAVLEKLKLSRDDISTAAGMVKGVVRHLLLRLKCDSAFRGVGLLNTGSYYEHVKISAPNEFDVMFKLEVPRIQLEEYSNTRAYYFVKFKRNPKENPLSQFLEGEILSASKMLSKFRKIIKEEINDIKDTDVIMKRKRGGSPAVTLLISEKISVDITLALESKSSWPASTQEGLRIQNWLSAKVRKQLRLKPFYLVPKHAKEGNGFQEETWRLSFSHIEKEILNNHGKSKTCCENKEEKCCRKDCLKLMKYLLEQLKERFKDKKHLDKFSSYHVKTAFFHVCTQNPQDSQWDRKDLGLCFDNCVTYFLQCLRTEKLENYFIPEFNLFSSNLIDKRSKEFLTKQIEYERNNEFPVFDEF
Method: All SPR binding studies were performed with a Biacore 8 K instrument (GE Healthcare Life Sciences). hcGAS-FL / hcGAS-ΔN (1 mg mL^−1) was immobilized in a CM5 chip by EDC/NHS method. The tested peptide was diluted with running buffer (20 mM HEPES, pH 7.5, 125 mM KCl,10 mM MgCl2). All the samples contained the same concentration of DMSO (0.5%). The tested peptide was injected at a flow rate of 30 μL min^−1 for 200 s of association, followed by 200 s of disassociation at 25 °C. The final graphs were obtained by subtracting blank sensorgrams. The data were analyzed with Biacore Insight Evaluation software.
Supplementary Fig. 5. The binding site of XQ2 may locate at the cGAS-dsDNA interface. (a) The 2D schematic of docked structure of XQ2 with cGAS (PDB ID: 4O69). (b) Structure activity relationship (SAR) analysis of XQ2 a nd its analogues based on the docked structure of the peptides with cGAS. (c) FAM-ISD (40nM) was incubated with the indicated doses of hcGAS-FL or hcGAS-FL (D191R) mutant, and the polarization signal was detected by a microplate reader. (d) SPR analysis of the binding of hcGAS-FL (D191R) mutant with XQ2. The binding affinity (Kd) […]
Data are representative of three independent experiments in (c). (Data […]
(§1) Source data are provided as a Source Data file.
XQ- Sequence Inhibition % […]

[3] = molecular target: T2, hcGAS-FL (D191R) mutant + FAM-ISD (Homo sapiens, UniProt Q8N884, D191R); test: Fluorescence polarization competition of FAM-ISD binding
T2 construct: The gene encoding full-length human cGAS (hcGAS-FL); 6xHis-SUMO (N, cleaved yes); made in house; host or cells: Escherichia coli BL21 (DE3)
T2 sequence (Q8N884 whole entry D191R): as above
From the text: Samples were dispensed in 30 μ L final volumes per well into a 384-well flat-bottom black plate (Corning 3575). The polarization was detected by a microplate reader (BioTek Synergy H1) with a fluorescence polarization filter cube (excitation wavelength: 485 ± 10 nm; emission wavelength: 528 ± 10 nm) immediately.

[4] = tested on: THP1 cells stimulated with SATE-cddA, 2’3’-cGAMP or ADU-S100 (STING agonists); test: qPCR of IFNB1 mRNA in THP1 cells stimulated by STING agonists; type: cell-based, human; design: key to IFNB1 mRNA level (Fig. S7c): relative mRNA level, target CT normalized to GAPDH CT
Method: (§2) The indicated cells were stimulated with either ISD (Sangon Biotech), HSV-1 (Provided by Dr. Zhengfan Jiang), HSV60mer (Sangon Biotech), SATE-cddA[70], 2’3’-cGAMP (Invivogen, Cat# tlrl-nacga23-1), ADU-S100 (MedChemExpress, Cat# HY-12885A) or Poly(I:C) (Invivogen, Cat# tlrl-pic) after XQ2 or XQ2B treatment. Total RNA was isolated from indicated cells that incubated with the drugs for indicated time or mice tissues by using NucleoZOL reagent (MACHEREY-NAGEL) according to the manufacturer’s instructions. The quantifications of mRNA levels were carried out by real-time PCR using a PerfectStart® Uni RT&qPCR Kit (TransGen Biotech) on the QuantStudio 5 qPCR machine (Applied Biosystems). Samples were carried out in triplicate and the target CT values were normalized to GAPDH CT values. Primers of qPCR used in this study can be found in Supplementary Table S2.
IFNB1 mRNA relative level […]
Supplementary Fig. 7. XQ2B inhibits the activity of cGAS in vitro. […]
(e) THP1 cells were pretreated
Data are representative of
as §1

[5] = tested on: Jurkat cells; test: Flow cytometry of apoptosis, Annexin V and PI staining; type: cell-based, human; conditions: XQ2B +
Method: Cell death was measured by Annexin V-FITC/PI Apoptosis Kit (Elabscience) according to the manufacturer’s instructions. Data were acquired on an Attune NxT (ThermoFisher) flow cytometer and analyzed in FlowJo.
Supplementary Fig. 8. XQ2B inhibits cGAS induced autophagy and cell death. (a) L929 cells were pretreated […]
measured by CCK8 assay. p = 0.0022. (c, d) Jurkat cells were treated with DMSO or XQ2B (5 μM), followed by stimulation with ISD (2ug/ml) for 4 h. Flow cytometric analysis of apoptosis assessed by Annexin V and PI staining.
Analysis strategy shown was used to determine the Annexin V+ or PI+ population (c). Numbers in quadrants present […]
percentages (d). p = 0.0006. […]
by HSV-1 infection for indicated titer and periods. Induction of HSV-1(UL5) mRNA was measured by qPCR. p = 0.0018 (1×10^4 pfu); p < 0.0001 (2×10^4 pfu). Data are representative of three independent experiments with similar results in (a), or three independent experiments in (b, d, e). (Data are presented as mean ± SD, n = 3 independent […]
are provided as a Source Data file.

[6] = tested on: Trex1 knockdown L929 cells; test: qPCR of Ifnb1 and Cxcl10 mRNA after Trex1 siRNA; type: cell-based, mouse
Method: as §2
siRNA of TREX1 (siTREX1) was transfected into the indicated cells by Lipofectamine RNAiMAX (Invitrogen) according to the manufacturer’s instructions. Human siTREX1, mouse siTrex1 and negative control siRNAs were purchased from Sangon Biotech. The sequences of siRNAs oligonucleotides can be found in Supplementary Table S2.
Supplementary Fig. 9. XQ2B reduces interferon expression induced by Trex1 deficiency. […]
Trex1 knockdown L929 cells were treated with DMSO or XQ2B (20 μM) for 24 h, and the mRNA levels of Trex1 (c),
Ifnb1 and Cxcl10 (d) mRNA was measured by qPCR. (c) p < 0.0001, (d) p = 0.003 (Ifnb1); p = 0.0003 (Cxcl10). (e, f) […]
as §1

Row | Structure (SMILES) | HSV-1-induced luciferase reporter signal ([1]; 10 μM) | luciferase activity, Fig. 5c ([1]; Ctl) | luciferase activity, Fig. 5c ([1]; HSV-1 1×10^4 pfu 24 h) | luciferase activity, Fig. 5c ([1]; HSV-1 2×10^4 pfu 24 h) | luciferase activity, Fig. 5c ([1]; HSV-1 5×10^4 pfu 24 h) | binding to hcGAS-FL (D191R), SPR [2] | inhibition of dsDNA binding to hcGAS-FL (D191R), FP [3] | IFNB1 mRNA level (Fig. S7c) ([4]; 2'3'-cGAMP, XQ2B) | IFNB1 mRNA level (Fig. S7c) ([4]; SATE-cddA, XQ2B) | signaling induced by STING agonists ([4]; THP1, 10 μM) | IFNB1 mRNA level (Fig. S7c) ([4]; c-di-AM(PS)2, XQ2B) | Induced cell death(%) (Fig. S8d) ([5]; ISD +) | Induced cell death(%) (Fig. S8d) ([5]; ISD -) | Relative mRNA level Cxcl10 ([6]; Fig. S9d, Trex1 knockdown (siTrex1 +) L929 cells, XQ2B +, individual replicates, siTrex1 alone 5.56-7.04) | Relative mRNA level Ifnb1 ([6]; Fig. S9d, Trex1 knockdown (siTrex1 +) L929 cells, XQ2B +, individual replicates, siTrex1 alone 23.9-27.1) | expression of Ifnb1, Cxcl10 with Trex1-siRNA ([6]; L929, 20 μM, 24 h)
1 | CC(C)C[C@@H]1NC(=O)[C@H](CCCNC(=N)N)NC(=O)[C@H](C(C)C)NC(=O)[C@@H]2CCCN2C(=O)[C@@H](Cc2ccccc2)NC(=O)[C@H](CC(C)C)NC(=O)[C@H](CCCNC(=N)N)NC(=O)[C@H](C(C)C)NC(=O)[C@H](C)NC(=O)[C@@H](Cc2ccccc2)NC1=O [XQ2, Cyclo (LfAVRLfPVR)] (cyclo(L[dF]AVRL[dF]PVR)) | further confirmed in the reporter cell line THP1 Lucia ISG | 1.148 and 1.262 and 1.5089 | 3.199 and 3.457 and 4.259 | 5.808 and 6.219 and 6.721 | 11.1309 and 12.5837 and 12.8036 | markedly reduced the binding affinity of XQ2 with cGAS; also recorded: could not be determined by saturation binding | markedly reduced | – | – | – | – | – | – | – | – | –
2 | CC(C)C[C@@H]1NC(=O)[C@H](CCCNC(=N)N)NC(=O)[C@H](C(C)C)NC(=O)[C@@H]2CCCN2C(=O)[C@@H](Cc2ccccc2)NC(=O)[C@H](CC(C)C)NC(=O)[C@H](CCCNC(=N)N)NC(=O)[C@H]([C@@H](C)O)NC(=O)[C@H](C)NC(=O)[C@@H](Cc2ccccc2)NC1=O [XQ2B] (cyclo([dF]ATRL[dF]PVRL)) | – | – | – | – | – | – | – | 4003.21 and 3809.06 and 3708.08 | 747.639 and 650.174 and 712.905 | no significant effect on signaling induced by STING agonists | 9.033 and 9.206 and 10.1658 | 18.8% and 19.1% and 18.5% | 3.9% and 3.8% | 1.176 and 1.276 and 1.118 | 15.103 and 18.4861 and 15.5105 | markedly inhibited the expression of these genes in mouse L929 and human THP1 cells with Trex1-siRNA
